In test [1] the target is Serine/threonine-protein kinase PAK 4 (Homo sapiens, UniProt O96013). The test is described as follows: Percentage PAK4 activity remaining in the presence of 0.01uM inhibitor.
For test [2], the target named is T1, Serine/threonine-protein kinase BRSK2 (Homo sapiens) (UniProt Q8IWQ3).
T1 sequence (whole entry): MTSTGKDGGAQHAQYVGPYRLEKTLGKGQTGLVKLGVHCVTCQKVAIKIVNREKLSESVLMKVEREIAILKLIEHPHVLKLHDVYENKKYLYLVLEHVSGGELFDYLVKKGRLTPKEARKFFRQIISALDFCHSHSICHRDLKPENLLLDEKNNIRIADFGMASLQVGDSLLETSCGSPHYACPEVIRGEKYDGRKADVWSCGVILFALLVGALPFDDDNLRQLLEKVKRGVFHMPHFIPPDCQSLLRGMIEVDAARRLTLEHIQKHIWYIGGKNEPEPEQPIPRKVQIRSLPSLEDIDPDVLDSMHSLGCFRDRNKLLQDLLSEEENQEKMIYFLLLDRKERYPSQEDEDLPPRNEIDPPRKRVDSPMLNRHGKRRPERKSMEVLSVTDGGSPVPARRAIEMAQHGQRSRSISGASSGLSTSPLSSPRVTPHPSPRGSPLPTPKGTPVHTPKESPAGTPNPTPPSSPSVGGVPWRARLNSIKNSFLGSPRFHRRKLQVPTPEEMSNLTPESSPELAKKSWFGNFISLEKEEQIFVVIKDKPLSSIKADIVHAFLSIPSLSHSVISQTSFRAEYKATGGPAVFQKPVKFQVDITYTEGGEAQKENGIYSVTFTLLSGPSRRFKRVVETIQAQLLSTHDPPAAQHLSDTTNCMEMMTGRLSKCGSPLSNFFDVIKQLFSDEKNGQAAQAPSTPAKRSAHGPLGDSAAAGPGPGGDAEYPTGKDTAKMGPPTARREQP
The test is described as follows: Percentage BRSK2 activity remaining in the presence of 0.01uM inhibitor.

The target of test [3] is Serine/threonine-protein kinase PAK 6 (Homo sapiens) (UniProt Q9NQU5). The test is described as follows: Percentage PAK6 activity remaining in the presence of 0.01uM inhibitor.
Serine/threonine-protein kinase PAK 6 (Homo sapiens), sequence (Q9NQU5 whole entry, looked up): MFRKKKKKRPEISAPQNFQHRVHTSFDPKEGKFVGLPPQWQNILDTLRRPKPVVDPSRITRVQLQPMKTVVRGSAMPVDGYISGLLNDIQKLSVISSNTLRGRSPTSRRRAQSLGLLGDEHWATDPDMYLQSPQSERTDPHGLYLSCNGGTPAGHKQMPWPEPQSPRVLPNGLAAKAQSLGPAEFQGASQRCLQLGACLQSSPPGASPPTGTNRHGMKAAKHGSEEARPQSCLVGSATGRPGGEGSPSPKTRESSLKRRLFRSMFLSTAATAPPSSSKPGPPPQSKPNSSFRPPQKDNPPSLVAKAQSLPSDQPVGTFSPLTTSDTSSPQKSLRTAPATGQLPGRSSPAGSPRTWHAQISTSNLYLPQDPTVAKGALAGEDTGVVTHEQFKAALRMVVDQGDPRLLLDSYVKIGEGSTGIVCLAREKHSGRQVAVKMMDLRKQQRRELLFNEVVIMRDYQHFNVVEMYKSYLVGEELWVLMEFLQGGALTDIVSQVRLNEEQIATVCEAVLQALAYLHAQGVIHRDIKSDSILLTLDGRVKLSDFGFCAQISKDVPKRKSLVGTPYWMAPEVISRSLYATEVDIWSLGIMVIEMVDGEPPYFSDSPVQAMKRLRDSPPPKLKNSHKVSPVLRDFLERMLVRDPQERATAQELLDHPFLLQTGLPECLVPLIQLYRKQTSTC
The target in test [4] is Calcium/calmodulin-dependent protein kinase type 1 (Homo sapiens) (UniProt Q14012). The test is described as follows: Percentage CaMK1 activity remaining in the presence of 0.01uM inhibitor.
Calcium/calmodulin-dependent protein kinase type 1 (Homo sapiens), sequence (Q14012 whole entry, looked up): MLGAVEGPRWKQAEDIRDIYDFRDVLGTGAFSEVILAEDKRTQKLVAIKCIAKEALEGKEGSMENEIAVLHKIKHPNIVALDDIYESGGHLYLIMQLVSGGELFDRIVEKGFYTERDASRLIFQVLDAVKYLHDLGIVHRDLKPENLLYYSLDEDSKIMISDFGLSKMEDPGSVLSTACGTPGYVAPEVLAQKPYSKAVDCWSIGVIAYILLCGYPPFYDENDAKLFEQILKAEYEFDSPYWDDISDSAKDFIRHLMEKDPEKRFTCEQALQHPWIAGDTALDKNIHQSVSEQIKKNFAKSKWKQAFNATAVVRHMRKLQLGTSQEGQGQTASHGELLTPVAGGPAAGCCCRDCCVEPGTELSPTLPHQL
The target in test [5] is Mitogen-activated protein kinase 11 (Homo sapiens) (UniProt Q15759). The test is described as follows: Percentage p38beta activity remaining in the presence of 0.01uM inhibitor.
Mitogen-activated protein kinase 11 (Homo sapiens), sequence (Q15759 whole entry): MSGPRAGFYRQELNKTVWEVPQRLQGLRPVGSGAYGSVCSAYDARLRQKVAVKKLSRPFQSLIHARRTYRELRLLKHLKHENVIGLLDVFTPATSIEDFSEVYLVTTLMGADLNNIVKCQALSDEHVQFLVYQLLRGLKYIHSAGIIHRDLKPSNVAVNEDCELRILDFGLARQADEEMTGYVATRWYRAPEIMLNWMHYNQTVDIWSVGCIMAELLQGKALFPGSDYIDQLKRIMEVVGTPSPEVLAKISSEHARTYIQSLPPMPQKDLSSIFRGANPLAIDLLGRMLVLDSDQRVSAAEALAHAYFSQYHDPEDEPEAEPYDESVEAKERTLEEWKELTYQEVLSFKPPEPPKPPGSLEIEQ
For a further test, the species on record is Rattus norvegicus. Kind of test: Percentage AMPK activity remaining in the presence of 0.01uM inhibitor.
Test [6] deals with MAP kinase-activated protein kinase 2 (Homo sapiens) (UniProt P49137). Kind of test: Percentage MAPKAPK2 activity remaining in the presence of 0.01uM inhibitor.
MAP kinase-activated protein kinase 2 (Homo sapiens), sequence (P49137 whole entry, looked up): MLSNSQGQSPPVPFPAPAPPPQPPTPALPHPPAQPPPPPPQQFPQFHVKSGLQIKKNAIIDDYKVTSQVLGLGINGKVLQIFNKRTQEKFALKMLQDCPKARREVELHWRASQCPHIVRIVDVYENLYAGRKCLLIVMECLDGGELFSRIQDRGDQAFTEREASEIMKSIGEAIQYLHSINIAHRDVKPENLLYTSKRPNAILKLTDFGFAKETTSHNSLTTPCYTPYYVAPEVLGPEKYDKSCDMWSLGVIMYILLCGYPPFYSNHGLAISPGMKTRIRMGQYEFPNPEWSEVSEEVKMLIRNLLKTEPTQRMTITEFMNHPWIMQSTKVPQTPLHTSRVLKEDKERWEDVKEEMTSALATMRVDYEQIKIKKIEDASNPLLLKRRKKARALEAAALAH
The target in test [7] is T2, Mitogen-activated protein kinase 15 (Homo sapiens) (UniProt Q8TD08).
T2 sequence (whole entry): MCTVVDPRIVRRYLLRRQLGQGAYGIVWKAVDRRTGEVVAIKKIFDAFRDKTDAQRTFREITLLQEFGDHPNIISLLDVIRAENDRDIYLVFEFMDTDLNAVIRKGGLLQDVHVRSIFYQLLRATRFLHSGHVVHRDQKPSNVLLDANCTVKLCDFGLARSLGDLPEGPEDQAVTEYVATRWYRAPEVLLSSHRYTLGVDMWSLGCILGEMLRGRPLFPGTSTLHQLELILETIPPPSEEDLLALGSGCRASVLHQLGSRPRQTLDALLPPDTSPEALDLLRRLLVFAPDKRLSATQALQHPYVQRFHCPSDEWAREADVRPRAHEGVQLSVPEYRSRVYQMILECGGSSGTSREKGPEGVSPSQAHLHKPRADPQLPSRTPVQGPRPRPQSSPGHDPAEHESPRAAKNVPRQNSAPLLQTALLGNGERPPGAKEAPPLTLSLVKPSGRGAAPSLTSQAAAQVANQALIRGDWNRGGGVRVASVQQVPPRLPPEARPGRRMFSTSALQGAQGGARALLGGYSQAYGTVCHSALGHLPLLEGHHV
The test is described as follows: Percentage ERK8 activity remaining in the presence of 0.01uM inhibitor.

Test [8] deals with MAP kinase-interacting serine/threonine-protein kinase 1 (Homo sapiens) (UniProt Q9BUB5). The test is described as follows: Percentage MNK1 activity remaining in the presence of 0.01uM inhibitor.
MAP kinase-interacting serine/threonine-protein kinase 1 (Homo sapiens), sequence (Q9BUB5 whole entry, looked up): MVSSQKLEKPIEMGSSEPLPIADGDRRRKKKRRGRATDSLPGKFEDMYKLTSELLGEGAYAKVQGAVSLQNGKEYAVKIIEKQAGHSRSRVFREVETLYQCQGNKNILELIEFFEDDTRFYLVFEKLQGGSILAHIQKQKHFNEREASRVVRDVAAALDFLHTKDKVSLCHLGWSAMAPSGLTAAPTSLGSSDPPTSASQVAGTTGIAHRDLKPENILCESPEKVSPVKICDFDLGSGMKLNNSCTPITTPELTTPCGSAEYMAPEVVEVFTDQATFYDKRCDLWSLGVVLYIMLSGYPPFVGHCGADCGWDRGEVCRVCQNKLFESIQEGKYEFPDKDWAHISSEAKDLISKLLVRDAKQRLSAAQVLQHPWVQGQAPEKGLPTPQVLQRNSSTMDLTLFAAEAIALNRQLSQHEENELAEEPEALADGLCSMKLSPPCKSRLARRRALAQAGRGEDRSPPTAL
In test [9] the target is Casein kinase II (Homo sapiens) (UniProt P67870+P68400+P19784). Kind of test: Percentage CK2 activity remaining in the presence of 0.01uM inhibitor. The class given is protein-complex assay.
Test [10] addresses Mitogen-activated protein kinase 3 (Homo sapiens) (UniProt P27361). The test is described as follows: Percentage ERK1 activity remaining in the presence of 0.01uM inhibitor.
In test [11] the target is Serine/threonine-protein kinase N2 (Homo sapiens) (UniProt Q16513). The test is described as follows: Percentage PRK2 activity remaining in the presence of 0.01uM inhibitor.
Serine/threonine-protein kinase N2 (Homo sapiens), sequence (Q16513 whole entry, looked up): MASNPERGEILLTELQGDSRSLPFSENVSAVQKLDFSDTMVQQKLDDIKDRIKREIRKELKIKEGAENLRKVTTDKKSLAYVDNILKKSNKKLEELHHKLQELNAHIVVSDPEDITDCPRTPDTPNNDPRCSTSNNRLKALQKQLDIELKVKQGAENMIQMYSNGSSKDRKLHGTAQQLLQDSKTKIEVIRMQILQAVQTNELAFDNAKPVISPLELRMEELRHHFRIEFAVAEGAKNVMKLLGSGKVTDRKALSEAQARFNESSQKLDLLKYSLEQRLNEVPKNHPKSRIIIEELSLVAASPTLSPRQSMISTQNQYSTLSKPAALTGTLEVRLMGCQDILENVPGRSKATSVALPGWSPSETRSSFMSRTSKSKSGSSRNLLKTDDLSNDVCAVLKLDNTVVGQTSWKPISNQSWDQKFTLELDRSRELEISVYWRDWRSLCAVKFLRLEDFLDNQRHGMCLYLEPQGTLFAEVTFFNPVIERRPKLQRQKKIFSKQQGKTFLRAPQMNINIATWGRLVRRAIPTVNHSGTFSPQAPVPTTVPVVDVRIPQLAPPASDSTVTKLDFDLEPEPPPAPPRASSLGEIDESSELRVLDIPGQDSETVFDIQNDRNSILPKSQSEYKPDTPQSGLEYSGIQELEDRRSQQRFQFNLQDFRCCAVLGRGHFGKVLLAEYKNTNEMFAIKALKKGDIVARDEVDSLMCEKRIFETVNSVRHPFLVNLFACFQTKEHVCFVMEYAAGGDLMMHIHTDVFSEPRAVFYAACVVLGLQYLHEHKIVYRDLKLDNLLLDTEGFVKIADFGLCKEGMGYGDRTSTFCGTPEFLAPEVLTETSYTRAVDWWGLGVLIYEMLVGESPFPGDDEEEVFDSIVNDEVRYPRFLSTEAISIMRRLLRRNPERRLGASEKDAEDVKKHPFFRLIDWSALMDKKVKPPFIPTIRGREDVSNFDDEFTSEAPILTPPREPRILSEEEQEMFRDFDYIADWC
In test [12] the target is Serine/threonine-protein kinase Nek6 (Homo sapiens) (UniProt Q9HC98). The test is described as follows: Percentage NEK6 activity remaining in the presence of 0.01uM inhibitor.
Serine/threonine-protein kinase Nek6 (Homo sapiens), sequence (Q9HC98 whole entry): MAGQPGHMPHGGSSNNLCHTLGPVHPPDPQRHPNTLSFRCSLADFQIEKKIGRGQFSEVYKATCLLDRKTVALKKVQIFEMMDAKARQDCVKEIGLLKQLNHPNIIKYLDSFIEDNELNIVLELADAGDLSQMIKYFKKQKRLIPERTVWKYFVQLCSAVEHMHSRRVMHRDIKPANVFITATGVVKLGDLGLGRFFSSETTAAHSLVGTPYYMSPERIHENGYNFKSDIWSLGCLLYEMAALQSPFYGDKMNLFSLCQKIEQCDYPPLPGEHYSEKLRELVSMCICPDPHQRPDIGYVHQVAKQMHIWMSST
The target of test [13] is MAP kinase-activated protein kinase 3 (Homo sapiens) (UniProt Q16644). The test is described as follows: Percentage MAPKAPK3 activity remaining in the presence of 0.01uM inhibitor.
The target in test [14] is T3, Eukaryotic elongation factor 2 kinase (Homo sapiens) (UniProt O00418).
T3 sequence (whole entry): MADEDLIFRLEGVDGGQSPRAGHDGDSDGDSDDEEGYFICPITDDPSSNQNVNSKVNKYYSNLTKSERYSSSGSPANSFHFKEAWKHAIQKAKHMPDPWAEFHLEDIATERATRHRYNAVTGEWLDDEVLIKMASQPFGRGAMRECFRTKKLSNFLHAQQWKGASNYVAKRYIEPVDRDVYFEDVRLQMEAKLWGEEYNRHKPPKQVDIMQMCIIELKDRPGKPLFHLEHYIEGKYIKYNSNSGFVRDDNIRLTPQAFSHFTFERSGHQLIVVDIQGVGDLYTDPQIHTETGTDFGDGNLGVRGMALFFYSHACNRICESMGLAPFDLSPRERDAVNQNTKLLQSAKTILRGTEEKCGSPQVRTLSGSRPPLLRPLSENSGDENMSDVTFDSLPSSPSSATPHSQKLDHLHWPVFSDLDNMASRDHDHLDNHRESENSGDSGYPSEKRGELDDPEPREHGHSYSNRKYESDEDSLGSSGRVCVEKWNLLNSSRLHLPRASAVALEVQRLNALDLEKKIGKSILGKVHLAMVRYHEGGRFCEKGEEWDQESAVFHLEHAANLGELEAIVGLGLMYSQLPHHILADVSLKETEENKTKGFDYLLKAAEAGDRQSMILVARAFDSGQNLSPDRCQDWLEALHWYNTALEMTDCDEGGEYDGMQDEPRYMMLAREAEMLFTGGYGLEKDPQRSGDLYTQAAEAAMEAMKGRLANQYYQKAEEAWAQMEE
Kind of test: Percentage EF2K activity remaining in the presence of 0.01uM inhibitor.

The target of test [15] is Calcium/calmodulin-dependent protein kinase kinase 1 (Homo sapiens) (UniProt Q8N5S9). Kind of test: Percentage CaMKKalpha activity remaining in the presence of 0.01uM inhibitor.
Calcium/calmodulin-dependent protein kinase kinase 1 (Homo sapiens), sequence (Q8N5S9 whole entry, looked up): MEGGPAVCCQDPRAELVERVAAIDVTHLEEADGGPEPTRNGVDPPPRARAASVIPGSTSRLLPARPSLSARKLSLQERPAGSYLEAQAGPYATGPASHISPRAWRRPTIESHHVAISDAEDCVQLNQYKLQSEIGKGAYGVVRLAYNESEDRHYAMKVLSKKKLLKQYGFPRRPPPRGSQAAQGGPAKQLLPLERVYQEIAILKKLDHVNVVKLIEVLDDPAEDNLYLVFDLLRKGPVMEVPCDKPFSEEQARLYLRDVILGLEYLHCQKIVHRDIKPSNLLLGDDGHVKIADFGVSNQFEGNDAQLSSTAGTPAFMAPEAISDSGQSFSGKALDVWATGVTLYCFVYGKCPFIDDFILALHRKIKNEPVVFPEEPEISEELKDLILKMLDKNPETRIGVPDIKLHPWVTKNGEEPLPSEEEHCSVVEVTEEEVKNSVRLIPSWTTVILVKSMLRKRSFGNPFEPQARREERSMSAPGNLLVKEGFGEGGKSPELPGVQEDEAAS

Drawing on ChEMBL document CHEMBL1150976, “The selectivity of protein kinase inhibitors: a further update” (Biochem J, 2007), this text covers Activity for three molecules.

The structures appear in SMILES notation.

Serine/threonine-protein kinase PAK 4, sequence (O96013 whole entry, looked up): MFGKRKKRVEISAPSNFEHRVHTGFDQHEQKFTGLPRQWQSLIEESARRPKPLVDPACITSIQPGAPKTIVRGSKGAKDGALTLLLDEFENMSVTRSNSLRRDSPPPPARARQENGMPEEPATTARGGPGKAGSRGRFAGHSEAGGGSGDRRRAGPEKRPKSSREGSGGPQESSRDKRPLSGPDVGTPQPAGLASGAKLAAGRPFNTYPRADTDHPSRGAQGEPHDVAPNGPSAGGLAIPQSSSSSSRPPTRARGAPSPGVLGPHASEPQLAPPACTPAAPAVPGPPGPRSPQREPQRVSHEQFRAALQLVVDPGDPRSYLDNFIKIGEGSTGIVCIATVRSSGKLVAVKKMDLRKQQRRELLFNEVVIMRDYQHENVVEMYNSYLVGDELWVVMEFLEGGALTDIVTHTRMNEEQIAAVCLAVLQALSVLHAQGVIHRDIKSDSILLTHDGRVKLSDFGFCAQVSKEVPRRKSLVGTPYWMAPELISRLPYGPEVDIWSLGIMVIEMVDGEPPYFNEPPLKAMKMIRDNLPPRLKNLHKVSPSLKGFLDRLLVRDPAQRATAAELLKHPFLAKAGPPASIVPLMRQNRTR

As for `Cc1n[nH]c2ccc(-c3cncc(OC[C@@H](N)Cc4c[nH]c5ccccc45)c3)cc12`, the Activity in test [1] was 99%; in [2] it was 88%; in [3], 87%; in [4], 89%; in test [5], 114%; in the test filed under Rattus norvegicus, 84%. In addition, the Activity was 92% in test [6]; 61% in test [7]; 120% in test [8]; 96% in [9]; 77% in [10]; 17% in test [11] (filed as antagonist). Further, the Activity was determined as 95% in [12], 91% in [13], 93% in [14] and 112% in test [15].

`O=C(NCCCNc1nc(Nc2cccc(NC(=O)N3CCCC3)c2)ncc1I)c1cccs1`: the Activity in [1] is 91%; in test [2], 92%; in test [3], 92%; in test [4], 86%; in test [5], 94%; in the test filed under Rattus norvegicus, 52%. Also, the Activity is 108% in test [6]; 40% in test [7] (filed as antagonist); 80% in test [8]; 93% in test [9]; 82% in test [10]; 79% in test [11]. In addition, the Activity in [12] amounted to 96%; in test [13], 103%; in test [14], 98%; in [15] it was 86%.

`CN[C@@H]1C[C@H]2O[C@@](C)([C@@H]1OC)n1c3ccccc3c3c4c(c5c6ccccc6n2c5c31)C(=O)N[C@H]4O` (stereo in doubt): the Activity in [1] (filed as antagonist) is 33%; in [2] (filed as antagonist), 27%; in test [3] (filed as antagonist), 35%; in [4] it was 86%; in test [5] it was 105%; in the test listed under Rattus norvegicus (filed as antagonist), 9%. Also, the Activity in [6] was 75%; in test [7], 92%; in test [8] it was 85%; in [9] it was 92%; in test [10], 112%; in [11] (filed as antagonist), 10%. Also, the Activity turned out to be 104% in test [12], 107% in [13], 105% in test [14] and 58% in test [15].
